In ChEMBL document CHEMBL2029319, “Kappa agonist CovX-Bodies” (Bioorg Med Chem Lett, 2012):
pEC50: −log10 of the molar value.

target: Kappa-type opioid receptor (Cavia porcellus, UniProt P41144); assay: Agonist activity at kappa opioid receptor in guinea pig ileum assessed as electric field-stimulated response; type: functional, tissue-based
Sequence (P41144 whole entry): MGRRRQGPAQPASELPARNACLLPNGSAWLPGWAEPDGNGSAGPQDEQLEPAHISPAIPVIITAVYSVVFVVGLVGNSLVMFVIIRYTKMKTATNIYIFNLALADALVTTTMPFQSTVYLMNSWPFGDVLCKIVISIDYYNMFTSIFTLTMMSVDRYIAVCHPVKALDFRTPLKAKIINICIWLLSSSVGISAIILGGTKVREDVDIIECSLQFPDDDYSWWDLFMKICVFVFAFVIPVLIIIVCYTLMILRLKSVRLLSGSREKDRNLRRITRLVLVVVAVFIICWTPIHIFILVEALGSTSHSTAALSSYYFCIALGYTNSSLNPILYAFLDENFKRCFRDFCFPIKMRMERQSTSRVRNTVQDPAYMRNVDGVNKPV

Row | Structure (SMILES) | pEC50
1 | CC(C)C[C@@H](NC(=O)[C@@H](Cc1ccccc1)NC(=O)[C@H](N)Cc1ccccc1)C(=O)N[C@H](CCCCN)C(N)=O | 9.66
2 | CC(C)C[C@@H](NC(=O)[C@@H](Cc1ccccc1)NC(=O)[C@H](N)Cc1ccccc1)C(=O)N[C@H](CCCCN)C(=O)N1CCC(CC(=O)NCCOCCOCC(=O)NCC(=O)NCc2cn(-c3ccc(C(=O)Nc4ccc(CCC(=O)N5CCC5=O)cc4)cc3)nn2)CC1 | 9.70
3 | CC(C)C[C@@H](NC(=O)[C@@H](Cc1ccccc1)NC(=O)[C@H](N)Cc1ccccc1)C(=O)N[C@H](CCCCN)C(=O)N1CCC(C(=O)NCCOCCOCC(=O)NCC(=O)NCc2cn(-c3ccc(C(=O)Nc4ccc(CCC(=O)N5CCC5=O)cc4)cc3)nn2)CC1 | 10.00

target: Kappa-type opioid receptor (Homo sapiens, UniProt P41145); assay: Agonist activity at recombinant kappa opioid receptor expressed in human U2OS cells coexpressing beta arrestin/EA complex assessed as beta arrestin recruitment after 60 mins by luminescence spectrophotometry; type: functional, cell-based
Sequence (P41145 whole entry): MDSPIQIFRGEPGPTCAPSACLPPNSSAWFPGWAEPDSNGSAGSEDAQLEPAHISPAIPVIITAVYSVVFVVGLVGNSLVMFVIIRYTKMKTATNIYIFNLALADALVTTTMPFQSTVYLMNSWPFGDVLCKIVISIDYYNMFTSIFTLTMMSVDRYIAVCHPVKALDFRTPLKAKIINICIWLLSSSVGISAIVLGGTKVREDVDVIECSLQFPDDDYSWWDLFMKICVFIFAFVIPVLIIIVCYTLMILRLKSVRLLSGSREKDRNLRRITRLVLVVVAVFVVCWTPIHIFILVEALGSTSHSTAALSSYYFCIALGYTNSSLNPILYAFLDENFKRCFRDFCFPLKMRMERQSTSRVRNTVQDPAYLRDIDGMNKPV

Row | Structure (SMILES) | pEC50
4 | CC(C)C[C@@H](NC(=O)[C@@H](Cc1ccccc1)NC(=O)[C@H](N)Cc1ccccc1)C(=O)N[C@H](CCCCN)C(N)=O | 8.52
5 | CC(C)C[C@@H](NC(=O)[C@@H](Cc1ccccc1)NC(=O)[C@H](N)Cc1ccccc1)C(=O)N[C@H](CCCCN)C(=O)NCC(=O)NCCSC1CC(=O)N(c2ccc(CCC(=O)N3CCC3=O)cc2)C1=O (stereo partly drawn) | 8.52
6 | CC(C)C[C@@H](NC(=O)[C@@H](Cc1ccccc1)NC(=O)[C@H](N)Cc1ccccc1)C(=O)N[C@H](CCCCN)C(=O)NCC(=O)NCC(=O)NCC(=O)NCCSC1CC(=O)N(c2ccc(CCC(=O)N3CCC3=O)cc2)C1=O (stereo partly drawn) | 8.30
7 | CC(C)C[C@@H](NC(=O)[C@@H](Cc1ccccc1)NC(=O)[C@H](N)Cc1ccccc1)C(=O)N[C@H](CCCCN)C(=O)NCC(=O)NCCSC1CC(=O)N(CCC(=O)NCCOCCOCCC(=O)Nc2ccc(CCC(=O)N3CCC3=O)cc2)C1=O (stereo partly drawn) | 5.83
8 | CC(C)C[C@@H](NC(=O)[C@@H](Cc1ccccc1)NC(=O)[C@H](N)Cc1ccccc1)C(=O)N[C@H](CCCCN)C(=O)NCC(=O)NCC(=O)NCC(=O)NCCSC1CC(=O)N(CCC(=O)NCCOCCOCCC(=O)Nc2ccc(CCC(=O)N3CCC3=O)cc2)C1=O (stereo partly drawn) | 6.75
